Laboratory results published in paper PMC7253423, “Quassinoid analogs with enhanced efficacy for treatment of hematologic malignancies target the PI3Kγ isoform” (Communications Biology, 2020).
pIC50: −log10 of the molar value. Values joined by “and” are separate entries in the source; they are usually repeats but may differ in a detail not shown here. Identical values can stand only once.

How the values were obtained:
[1] = Body weight of xenograft mice; type: in vivo, NOD/SCID mice; conditions: individual mice, Fig S3i, in g (unit assumed)
Method: (§1) Six-week-old male NOD.CB17-Prkdc^scid/J (NOD/SCID) mice (Jackson Labs, Bar Harbor, ME, USA) were used as the human-in-mouse xeno-transplantation model. MOLM14 cells (1 × 10^7 cells) were injected into the subcutaneous space on the left flank of the mice. […] Body weight and tumor size were monitored before every injection. After treatment for 2 weeks, the mice were euthanized by CO2 inhalation and the tumors were carefully excised. The tumor volume (mm^3) was measured and calculated using the formula (a × b × b)/2 (a, the largest diameter of two measurements; b, the smallest diameter of two measurements).

[2] = tested on: MOLM14 xenografts; assay: In vivo tumorigenic assay using xenografts, tumor size; parameters: species or system NOD/SCID mice; conditions: for tumor size (Fig 5d&5e), individual mice: MOLM14 xenograft
Method: as §1

[3] = In vivo toxicity test, survival rate; parameters: species or system NOD/SCID mice; conditions: for survival event status per mouse (Fig 6i; 1 = event/death, 0 = censored): 10mg/kg
Method: The survival rate was recorded to monitor the tolerance of the compounds in these mice.

[4] = tested on: Raji cells; assay: Western blot of PI3K/AKT signaling proteins; type: cell-based, human
Method: (§2) Western blot analyses were performed as previously described. Briefly, total cell lysates were separated by SDS-PAGE gel and transferred to nitrocellulose membrane. The membranes were blocked with 5% non-fat milk, probed with specific antibodies, and visualized using the Odyssey scanner (LiCor Inc., Lincoln, NE).

[5] = tested on: hematologic malignancies derived cell lines; assay: Cell viability assay, panel of hematologic malignancy derived cell lines; type: cell-based, human; conditions: 100 nM, 72 h, lymphoma, leukemia and multiple myeloma cell lines (13 cell lines for analogs)
Method: (§3) 5000 cells as indicated were cultured in 96-well plate with 100 μl of media. On the next day, Brusatol or associated analogs were added once to the cells without media change. After treatment, the cells were incubated with 100 μl buffer for 10 min at room temperature following the instructions of CellTiter-Glo kit (Promega, Madison, WI). Luminescence was detected using a multi-mode reader Cytation 5 (BioTek, Winooski, VT). […] Two independent experiments done in duplicates were performed.

[6] = tested on: SU-DHL-4 cells; assay: Cell viability assay (CellTiter-Glo luminescence); type: cell-based, human
Method: (§4) 5000 cells as indicated were cultured in 96-well plate with 100 μl of media. […] After treatment, the cells were incubated with 100 μl buffer for 10 min at room temperature following the instructions of CellTiter-Glo kit (Promega, Madison, WI). Luminescence was detected using a multi-mode reader Cytation 5 (BioTek, Winooski, VT). […] Two independent experiments done in duplicates were performed.

[7] = tested on: Raji cells; assay: Cell viability assay (CellTiter-Glo luminescence); type: cell-based, human; conditions: for Cell viability (luminescence): duplicates
Method: as §4

[8] = tested on: SU-DHL-4 cells; assay: Western blot of PI3K/AKT signaling proteins; type: cell-based, human; conditions: SU-DHL-4, 0, 50 nM, 100 nM; 0, 12 h, 24 h
Method: as §2

[9] = tested on: K562 cells; assay: Western blot of PI3K/AKT signaling proteins; type: cell-based, human; conditions: K562, 0, 50 nM, 100 nM; 0, 12 h, 24 h
Method: as §2

[10] = tested on: HL-60 cells; assay: Western blot of PI3K/AKT signaling proteins; type: cell-based, human; conditions: HL-60, 0, 50 nM, 100 nM; 0, 12 h, 24 h
Method: as §2

[11] = tested on: LCL1 cells; assay: Western blot of PI3K/AKT signaling proteins; type: cell-based, human; conditions: LCL1, Fig. 2i
Method: as §2

[12] = tested on: PIK3CG knock-out Raji cells; assay: Western blot of PI3K/AKT associated proteins in knock-out cells; type: cell-based, human; conditions: 100 nM, 72 h
Method: as §2
Oligos were obtained from Integrated DNA Technologies (IDT; Coralville, IA, USA) and cloned into the lentiviral vector lentiCRISPR v2 (Addgene #52961)[66]. Lentivirus production and transduction have been described previously. Here, Raji cells were transduced with a lentivirus harboring lentiCRISPR v2 vector or a construct containing the guide sequence ([…]) against PIK3CG gene. At 48 h post-transduction, cells were selected with puromycin and harvested to determine PIK3CG expression with western blot.

[13] = tested on: PDX-129 (B-cell Follicular lymphoma); assay: Cell viability assay in patient-derived xenograft cells; type: cell-based, human; conditions: PDX-129, different concentrations, 72 h
Method: as §3

[14] = tested on: PDX-255 (Burkitt's lymphoma); assay: as above; type: cell-based, human; conditions: PDX-255, different concentrations, 72 h
Method: as §3

[15] = tested on: PDX-223 (Diffuse large B cell lymphoma); assay: as above; type: cell-based, human; conditions: PDX-223, different concentrations, 72 h
Method: as §3

[16] = tested on: SU-DHL-4 cells; assay: Cell cycle assay (PI staining, flow cytometry); type: cell-based, human; conditions: SU-DHL-4, 100 nM, 48 h
Method: (§5) Five million cells were harvested, fixed with 80% ethanol for 2 h or overnight at −20 °C, then washed with PBS and incubated with Propidium iodide (PI) staining buffer (0.5 mg/ml propidium iodide in PBS with 50 μg/ml RNase A) for 30 min at room temperature. The stained cells were resuspended in PBS and analyzed on a FACSCalibur system (Becton Dickinson, San Jose, CA, USA) using FlowJo software (TreeStar, San Carlos, CA, USA).

[17] = tested on: K562 cells; assay: Cell cycle assay (PI staining, flow cytometry); type: cell-based, human; conditions: K562, 100 nM, 48 h
Method: as §5

[18] = tested on: HL-60 cells; assay: Cell cycle assay (PI staining, flow cytometry); type: cell-based, human; conditions: HL-60, 100 nM, 48 h
Method: as §5

[19] = tested on: Raji cells; assay: Cell cycle assay (PI staining, flow cytometry); type: cell-based, human; conditions: 100 nM, 48 h
Method: as §5

[20] = Raji, 0, 50 nM, 100 nM, 0, 12 h, 24 h

Molecule: COC(=O)C12OCC34C(CC5C(C)=C(OC(=O)CNC(=O)OC(C)(C)C)C(=O)CC5(C)C3C(O)C1O)OC(=O)C(OC(=O)C=C(C)C)C24 (centres unmarked) [#15]
- Body weight ([1]; 0d): 22.36 and 23.19 and 22.87 and 22.58 and 24.63
- Body weight ([1]; 2d): 23.14 and 23.83 and 23.95 and 23.84 and 24.63
- Body weight ([1]; 4d): 23.76 and 24.67 and 24.61 and 23.58 and 25.59
- Body weight ([1]; 6d): 23.47 and 24.61 and 23.88
- Body weight ([1]; 8d): 23.92 and 24.24 and 24.72 and 24.85 and 23.89 and 25.62
- Body weight ([1]; 10d): 24.4 and 25.19 and 24.12
- Body weight ([1]; 12d): 25.79 and 25.75 and 24.71 and 26.96
- tumor size, inhibitory response ([2]; 2 mg/kg intraperitoneally three times per week, 2 weeks, vs PBS control): strong and rapid inhibitory response
- tumor size (Fig 5d&5e), individual mice ([2]; 0d): 78.7304 and 93.4671 and 63.7324 and 75.8678 and 67.9005 and 67.4325
- tumor size (Fig 5d&5e), individual mice ([2]; 2d): 74.0736 and 114.773 and 91.676 and 153.055 and 77.875 and 106.489
- tumor size (Fig 5d&5e), individual mice ([2]; 4d): 75.6994 and 102.99 and 96.7244 and 124.841 and 62.8883 and 83.9808
- tumor size (Fig 5d&5e), individual mice ([2]; 6d): 103.463 and 91.5117 and 52.853 and 252.562 and 146.711 and 106.359
- tumor size (Fig 5d&5e), individual mice ([2]; 8d): 91.2302 and 210.386 and 191.93 and 161.391 and 92.482 and 87.983
- tumor size (Fig 5d&5e), individual mice ([2]; 10d): 119.98 and 398.721 and 249.328 and 242.913 and 135.818 and 159.498
- tumor size (Fig 5d&5e), individual mice ([2]; 12d): 236.553 and 558.264 and 472.199 and 496.746 and 222.458 and 242.483
- toxicity in vivo (survival) ([3]; 10 mg/kg intraperitoneally every other day, monitored 24 days, 4 mice per group): obviously lethal for the majority of mice within the first 4 days
- survival event status per mouse (Fig 6i; 1 = event/death, 0 = censored) ([3]; Days Post-treatment 2): 1
- survival event status per mouse (Fig 6i; 1 = event/death, 0 = censored) ([3]; Days Post-treatment 3): 1
- survival event status per mouse (Fig 6i; 1 = event/death, 0 = censored) ([3]; Days Post-treatment 4): 1
- suppression of AKT1, GSK3, and mTOR levels [4, 20]: largely similar to Brusatol
- inhibition of cell viability in panel of cell lines [5]: significantly inhibit
- viability at 0.00244141 µM ([6]; Homo sapiens, SU-DHL-4, 144 h, read-out: relative cell viability (Fig 6d), replicates, SU-DHL-4, Con. 0.00244141 μM, fraction of 0 μM control): 90.7%
- viability at 0.0390625 µM ([6]; Homo sapiens, SU-DHL-4, 144 h, read-out: relative cell viability (Fig 6d), replicates, SU-DHL-4, Con. 0.0390625 μM, fraction of 0 μM control): 35.2%
- viability at 0.15625 µM ([6]; Homo sapiens, SU-DHL-4, 144 h, read-out: relative cell viability (Fig 6d), replicates, SU-DHL-4, Con. 0.15625 μM, fraction of 0 μM control): 13.9%
- viability at 0.625 µM ([6]; Homo sapiens, SU-DHL-4, 144 h, read-out: relative cell viability (Fig 6d), replicates, SU-DHL-4, Con. 0.625 μM, fraction of 0 μM control): 7.7%
- viability at 10 µM ([6]; Homo sapiens, SU-DHL-4, 144 h, read-out: relative cell viability (Fig 6d), replicates, SU-DHL-4, Con. 10 μM, fraction of 0 μM control): 4.89%
- pIC50 ([7]; Homo sapiens, 72 h): 7.03
- viability at 0.00244141 µM ([7]; Homo sapiens, read-out: relative cell viability (Fig 6f), replicates, Raji, Con. 0.00244141 μM, fraction of 0 μM control): 120%
- viability at 0.0390625 µM ([7]; Homo sapiens, read-out: relative cell viability (Fig 6f), replicates, Raji, Con. 0.0390625 μM, fraction of 0 μM control): 63.6%
- viability at 0.15625 µM ([7]; Homo sapiens, read-out: relative cell viability (Fig 6f), replicates, Raji, Con. 0.15625 μM, fraction of 0 μM control): 25.8%
- viability at 0.625 µM ([7]; Homo sapiens, read-out: relative cell viability (Fig 6f), replicates, Raji, Con. 0.625 μM, fraction of 0 μM control): 10.3%
- viability at 10 µM ([7]; Homo sapiens, read-out: relative cell viability (Fig 6f), replicates, Raji, Con. 10 μM, fraction of 0 μM control): 5.59%

Molecule: Brusatol
- tumor size (Fig 5d&5e), individual mice ([2]; 0d): 79.6409 and 170.904 and 81.1118 and 93.0315 and 105.314 and 98.3496
- tumor size (Fig 5d&5e), individual mice ([2]; 2d): 114.921 and 89.4339 and 85.1926 and 118.807 and 122.531 and 72.1684
- tumor size (Fig 5d&5e), individual mice ([2]; 4d): 71.6608 and 87.7482 and 91.4458 and 96.2719 and 66.2604 and 63.9219
- tumor size (Fig 5d&5e), individual mice ([2]; 6d): 86.9292 and 188.062 and 142.989 and 148.569 and 65.5816 and 390.002
- tumor size (Fig 5d&5e), individual mice ([2]; 8d): 191.246 and 199.336 and 280.113 and 250.93 and 138.38 and 152.733
- tumor size (Fig 5d&5e), individual mice ([2]; 10d): 255.462 and 401.539 and 386.529 and 187.744 and 278.266
- tumor size (Fig 5d&5e), individual mice ([2]; 12d): 394.032 and 649.634 and 755.109 and 281.476 and 493.005
- protein expression of AKT1, GSK3, and mTOR [8]: substantially reduced
- protein expression of AKT1, GSK3, and mTOR [9]: minimally affected
- protein expression of AKT1, GSK3, and mTOR [10]: minimally affected
- levels of AKT1 and GSK3 proteins [11]: decreased
- protein expression of AKT1, GSK3, and mTOR [4, 20]: substantially reduced
- levels of AKT1 and GSK3 proteins ([4]; Raji, Fig. 2h): decreased
- inhibition of cell viability in panel of cell lines [5]: broad and potent inhibitory effects
- AKT1 level [12]: no obvious decrease
- inhibition of cell viability [13]: inhibited
- inhibition of cell viability [14]: inhibited
- inhibition of cell viability [15]: inhibited
- Sub-G1 population [16]: 67.9%
- Sub-G1 population [17]: 3.19%
- Sub-G1 population [18]: 7.63%
- Sub-G1 population [19]: 68.4%
- inhibition of viability (cells inhibited) ([6]; SU-DHL-4, 100 nM, 48 h post-treatment): more than 80%
- inhibition of viability (cells inhibited) ([7]; 100 nM, 48 h post-treatment): more than 80%
- Cell viability (luminescence) ([7]; cell number 0, 100 nM, 72 h): 0.9927 and 1.007
- Cell viability (luminescence) ([7]; cell number 625, 100 nM, 72 h): 3.94 and 4.0527
- Cell viability (luminescence) ([7]; cell number 1250, 100 nM, 72 h): 7.303 and 7.093
- Cell viability (luminescence) ([7]; cell number 2500, 100 nM, 72 h): 8.911 and 8.321
- Cell viability (luminescence) ([7]; cell number 5000, 100 nM, 72 h): 13.6562 and 12.7698
- Cell viability (luminescence) ([7]; cell number 10000, 100 nM, 72 h): 11.8436 and 13.905
